pIC50, pKi: −log10 of the molar value.
Experiments:
[1] = system: nuclear translocation of p65; assay: Nuclear translocation of NF-κB subunit p65 in RASM cells; assay type: cell-based, rat; conditions: 1 nM, 24 hours or one hour before or together with TNF-α 10 ng/ml
Procedure: Nuclear Translocation of p65. RASM cells were grown in M-199 medium+10% FBS until 50% confluent in 8 well chamber slides. Cells were treated with 1 nM (R)-DOI for various times as indicated, and TNF-α (10 ng/ml; tumor necrosis factor alpha) added. Thirty minutes after TNF-α treatment, cells were fixed and processed with rabbit anti p65 primary and Alexafluor 488-conjugated goat secondary antibodies as described in Zerfaoui et al. (2008) (Zerfaoui et al., 2008). Fluorescent signal was visualized on a Leica DMRA2 fluorescent microscope.
Both ICAM-1 and VCAM-1 gene transcription during inflammatory processes is regulated by the transcription factor NF-κB (Collins et al., 1995). During this process, NF-κB must be activated, and then translocated from the cytoplasm to the nucleus, where it promotes gene transcription. To investigate whether 5-HT2A receptor stimulated inhibition of NF-κB activation and translocation might be a possible mechanism for blockade of proinflammatory gene expression changes, a series of immunohistochemical experiments were conducted examining p65 translocation in RASM cells. TNF-α treatment for 30 minutes caused the expected dramatic shift in localization of the p65 subunit of NF-κB from the cytoplasm to the nucleus (FIG. 7A). […]

ICAM-1 gene expression = assay: TNF-α induced ICAM-1 gene expression in human neuroblastoma cells (SHSY5Y); assay type: cell-based
Procedure: Experiments were conducted to analyze for the effect of 5-HT2A receptor activation on proinflammatory marker expression in other cell types. Human neuroblastoma cells (SHSY5Y) and rat glioma cells (C6) can be obtained from the American Type Culture Collection (Manassas, Va.), but were provided Purdue University. The cells were grown in DMEM+10% FBS. DMEM was made and provided by the Cell and Molecular Core of the Mentoring in Cardiovascular Biology COBRE center at LSUHSC-NO. FBS was purchased from Invitrogen (Carlsbad, Calif.). Primary rat aortic endothelial cells were prepared fresh and provided by the Cell and Molecular Core of the Mentoring in Cardiovascular Biology COBRE center at LSUHSC-NO. Cells were tested at passages 3-4. Cells were grown in endothelial cell growth medium (Cell Applications, Inc.). Primary rat bronchoaveolar macrophage cells were obtained by lung lavage from rats and used at day 3 or 4 post plating in DMEM+10% FBS.
All treatments with 5-HT2A receptor agonists occurred 1 hour prior to the addition of TNF-alpha (10 ng/ml) or LPS (100 ng or 1 mg) depending on the experiment. All RNA isolations, cDNA synthesis, QPCR gene expression assays examining ICAM1, VCAM1, and IL6, and data analysis were performed as described above in Example 1, except the primers were different for the human cell experiment. […]

5-HT2A receptor = conditions: read-out: Affinity=Ki for the receptor; cited from earlier work

## COc1cc(C[C@@H](C)N)c(OC)cc1I [(R)-DOI, (R)-1-(2,5-dimethoxy-4-iodophenyl)-2-aminopropane]
[1]
  effect on TNF-α induced p65 nuclear translocation: completely blocked
ICAM-1 gene expression
  effect on ICAM-1 gene expression in human neuroblastoma cells: blocked
ICAM-1 gene expression; Homo sapiens, Neuroblastoma cell, 1 hour prior to TNF-α 10 ng/ml, read-out: IC50 for ICAM-1 gene expression inhibition in human neuroblastoma cells
  pIC50: ~9.10
5-HT2A receptor
  pKi: 9.30

Reference: US9642819B2, “Low dosage serotonin 5-HT2A receptor agonist to suppress inflammation” (BOARD OF SUPERVISORS OF LOUISIANA STATE UNIVERSITY AND …, priority 2008, dated 2017)
